The values that follow come from US7964191B2, “Compositions and methods for the treatment of ophthalmic disease” (Allergan, Inc., priority 2006, dated 2011).

Data set [1] concerns exudative age related macular degeneration. Kind of data set: Treatment of a patient with exudative age related macular degeneration. The format is in vivo, human. On the procedure: A patient suffering from exudative age related macular degeneration in the right eye is given a subretinal injection of a biodegradable implant containing 1 μg total of equimolar amounts of oligonucleotide pair 4 (SEQ ID NO: 36 and SEQ ID NO: 37) in a volume of 100 μl. The eye is monitored weekly for 16 weeks.
A patient is diagnosed with exudative age-related macular degeneration.
The patient is given an subconjunctival injection of a solution containing 10 mg of 1,1′-[1,4,phenylene-bis(methylene)]-bis-1,4,8,11-tetraazacyclotetradecane (AMD3100), see Bridger et al., US2004/0209921, incorporated by reference herein) in each eye once every two weeks for 6 months. The patient is monitored bimonthly and visual acuity tested.

The test system of the next data set is CXCR4 mRNA. Kind of data set: CXCR4 RNA expression in ARPE-19 cells by whole human genome array hybridization. In kind it is cell-based. The settings on record: for expression of intact intracellular CXCR4 RNA: cells uninduced with t-BH, compared to cells untreated with siRNA or given control siRNA, FIG. 3. As for the experimental part:
To isolate RNA from cells, 1 ml Qiazol® (a phenol/guanidinium isothiocyanate-based RNAse inhibitory lysis buffer sold by Qiagen, Inc.) was added to the ARPE-19 cells and the lysates then scraped into 2 ml tubes. 200 μl of chloroform per ml of Qiazol® was then added, the tubes mixed and centrifuged at 12,000×g for 15 minutes at 4° C. The aqueous phase was removed and applied to an RNeasy® mini column (Qiagen), washed and the column eluted with water. Five micrograms of the eluate were used for subsequent RT-PCR reactions. RT-PCR reactions were carried out using the Stratascript® First Strand Synthesis System (Stratagene). The RNA was denatured at 65° C. for 5 minutes, cooled at RT for 10 minutes then incubated at 42° C. for 60 minutes with reverse transcriptase.
A whole human genome DNA oligonucleotide array (Agilent Technnologies, G4112A array) was used to hybridize against RNA samples prepared from ARPE-19 cells treated with t-BH. This 44K slide format contains a collection of 60-mer oligonucleotides with sequences representing over 41 K human genes and transcripts.
RNA labeling was performed using the Low RNA Input Fluorescent Linear Amplification kit (LIK®) from Agilent Technologies (#5184-3523) following the manufacturer's recommendations. Briefly, 200 ng of total RNA from the ARPE-19 cells isolated as described in Example 2 were reverse transcribed in a 20 μL volume using with 1 μL Moloney Murine Leukemia Virus reverse transcriptase (MMLV-RT) and 1.2 μL of T7 promoter primer in 1× First Strand Buffer at 40° C. for 2 hours. From the double-stranded DNA preparation, transcription and direct labeling were prepared in 80 μL at 40° C. for 2 hours using 0.8 μL of T7 RNA polymerase, 0.6 μL inorganic pyrrophosphatase, 2.4 μL of each Cy-dye-CTP at 10 mM (PerkinElmer/NEN Life Sciences Cyanine-3-CTP #NEL580 and Cyanine-5-CTP #NEL581) in 4% PEG solution and 1× Transcription buffer. Cyanine dyes are highly sensitive fluorescent dyes.
Amplified and labeled cRNA was purified on Rneasy® mini columns (Qiagen, Inc.) according to manufacturer's protocol. cRNA was quantified by absorbance at 260 nm, 550 nm and 650 nm. Once labeling is complete, both Cy3 and Cy5 RNA samples are combined and hybridized to the microarray using the Agilent In Situ Hybridization kit (#5184-3568) following Agilent's recommendations.
Briefly 750 ng of cyanine 3-labeled linearly amplified cRNA and 750 ng of cyanine 5-labeled linearly amplified cRNA are combined to 1× control targets, 0.5× fragmentation buffer. This 2× target solution is denaturated at 60° C. for 30 minutes and 1× hybridization buffer in a 500 μL final volume is added to terminate the fragmentation reaction.
The target solution is then dispensed onto the 44K microarray. Incubation time was 17 hours at 60° C. in a hybridization oven with rotation at 4 rpm (Agilent Technologies #G2545A). Washes were performed for 5 minutes in 6×SSPE, 0.005% N-lauroyl sarcosine at room temperature, then for 5 minutes in 0.06×SSPE, 0.005% N-lauroyl sarcosine at room temperature, and finally for 30 seconds in Agilent Stabilization and Drying Solution®. The dried slides were scanned using a microarray scanner.
Total RNA was isolated from the cells (uninduced with t-BH) and the amount of CXCR4 RNA determined by gene array hybridization. The amount of CXCR4 in the naïve cells are standardized as “100%”.

The subject of a further data set is ARPE-19 cells. Kind of data set: Oxidative stress/cell viability (WST) assay in ARPE-19 cells exposed to t-BH. In kind it is cell-based. On the procedure: ARPE 19 cells (American Type Tissue Collection (ATTC) Number CRL2302) were plated at a cell density of 6×10^4 cells per 10 cm tissue culture dish, in Delbecco's Modified Eagle's Medium (DMEM) F12 containing 10% fetal bovine serum (FBS) and 1% antibiotic/antimycotic solution (10,000 units of penicillin G (sodium salt), 10,000 μg/ml of streptomycin sulfate, and 25 μg/ml of amphotericin B in 0.85% saline) incubated at 37° C. overnight.
These oligonucleotides or control oligonucleotides (Stealth RNAi negative control Med GC (Invitrogen, Inc.)) were added in 1.5 ml of OptiMem® media (Gibco BRL) to a final concentration of 25 nM. In a separate equal volume of OptiMem® media, 15 μl of lipofectamine reagent (Lipofectamine® 2000, Invitrogen, Inc.) was similarly added to equal volume of OptiMem® media and incubated at room temperature for 5 minutes.
Both solutions were then mixed together and further incubated for 20 minutes at room temperature. The cells were washed once with OptiMem® media, the total volume of the mixture was brought up to 10 ml with OptiMem® media (Gibco BRL) and then added to the cells. Cells were permitted to incubate overnight at 37° C. 24 hours following transfection, the transfection mixture was removed and 10 ml of fresh DMEM F12 media added to the cells. […]
Cell viability was measured using the WST assay (Chemicon International, Inc.) according to the manufacturer's instructions. […] Thus, the formazan dye produced by viable cells can be quantified by a multiwell spectrophotometer (microplate reader) by measuring the absorbance of the dye solution at 440 nm.
In this case, 10 μl of WST-1 reagent was added to each well after 24 hours. The optimum assay development time was determined to be 1.5 hours. Plates were then read in a Spectramax M2 Platereader® at 450 nm. […]

The mark [2] stands for this setting: Example 8, subconjunctival 10 mg each eye every two weeks for 6 months.

As for “Pair 4: anti CXCR4 siRNA, SEQ ID NO: 36 and SEQ ID NO: 37 (chain 1 CCCACCAUCUACUCCAUCAUCUUCU; chain 2 AGAAGAUGAUGGAGUAGAUGGUGGG; listed as RNA, chemistry not given here)”, the “extent of macular degeneration” value in data set [1] (Example 6, end of the 16 week period) is “no increase in the extent of macular degeneration is observed”. The “improvement in visual acuity” value in data set [1] (Example 6, right eye, subretinal biodegradable implant, 1 μg total, by week 3, maintained for 16 weeks) is on record as “two”.

As to “Pair 2: anti-CXCR4 siRNA, SEQ ID NO: 12 and SEQ ID NO: 13 (chain 1 AACAGUGGAAGAAAGCUAGGGCCUC; chain 2 GAGGCCCUAGCUUUCUUCCACUGUU; listed as RNA, chemistry not given here)”, in the data set on CXCR4 mRNA, the “expression of intact intracellular CXCR4 RNA” value is listed as “reduce the expression of intact intracellular CXCR4 RNA”.

Take “Pair 1: anti-CXCR4 double-stranded siRNA, SEQ ID NO: 10 and SEQ ID NO: 11 (chain 1 AACAGUGGAAGAAAGCUAGGGGCUC; chain 2 GAGGCCCUAGCUUUCUUCCACUGUU; listed as RNA, chemistry not given here)”: the “inhibition of cell death induced by oxidative stress (WST cell viability)” value in the data set on ARPE-19 cells (ARPE-19 cells, 300 uM t-BH for 6 hours, siRNA at 10 nM or 25 nM, FIG. 2) is recorded as “inhibits the cell death induced by oxidative stress (exposure to 300 uM t-BH) in a dose-dependent fashion”. Besides, in the data set on CXCR4 mRNA, the “expression of intact intracellular CXCR4 RNA” value is “reduce the expression of intact intracellular CXCR4 RNA”.

As for “Pair 3: anti-CXCR4 siRNA, SEQ ID NO: 14 and SEQ ID NO: 15 (chain 1 CUUGGAGUGUGACAGCUUGGAGAUG; chain 2 CAUCUCCAAGCUGUCACACUCCAAG; listed as RNA, chemistry not given here)”, in the data set on CXCR4 mRNA, the “expression of intact intracellular CXCR4 RNA” value was “reduce the expression of intact intracellular CXCR4 RNA”.

Regarding `c1cc(CN2CCCNCCNCCCNCC2)ccc1CN1CCCNCCNCCCNCC1` [AMD3100, 1,1′-[1,4,phenylene-bis(methylene)]-bis-1,4,8,11-tetraazacyclotetradecane], in data set [1] (Example 8, end of six-month treatment), the “fluorescein angiography: leakage of blood into retinal tissues” value was “no detectable leakage of blood into retinal tissues”. The “visibly apparent extent of retinal degeneration” value in data set [1] (Example 8, end of six-month treatment versus beginning of study) is reported as “no increase in the visibly apparent extent of retinal degeneration”. Moreover, in data set [1] (setting [2]), the “increase in visual acuity, left eye” value was “one” and the “increase in visual acuity, right eye” value is recorded as “two”.

As to `CC(C)(C)OO` [t-BH, tertiary-butylhydroperoxide], the “cells surviving for at least 24 hours” value in the data set on ARPE-19 cells (ARPE-19 cells exposed to t-BH for 3 hours, then non t-BH-containing media) is given as “approximately 70%”. In addition, the cell death entry with ARPE-19 cells (ARPE-19 cells exposed to t-BH for 6 hours) is “cell death by 24 hours”. Also, in the data set with CXCR4 mRNA (ARPE-19 cells, immediately after six hours' incubation with t-BH), the “expression of CXCR4 RNA over baseline” value stood at 30 fold. For the same molecule, the “increase in expression of CXCR4 RNA over baseline” value in the data set with CXCR4 mRNA (ARPE-19 cells, immediately after three hours' exposure to t-BH, untreated cells as baseline) worked out at 20 fold. Further, the “reduction in CXCR4 expression after recovery” value in the data set on CXCR4 mRNA (t-BH for three hours, then further three hours in t-BH-free medium) was “almost no reduction in CXCR4 expression”. Moreover, in the data set on CXCR4 mRNA (t-BH for three hours, then further twenty four hours in t-BH-free medium, versus levels immediately following exposure), the “decrease in CXCR4 RNA after recovery” value is “approximately 35%”.
